{"source": "PubChem BioAssay (NCI)", "experiment_in_all_cases": "NCI anticancer screen, dose series, 48 h", "key": {"[1]": {"system": "SN12C renal"}, "[2]": {"system": "RPMI-8226 leukemia"}, "[3]": {"system": "SW-620 colon"}, "[4]": {"system": "SK-MEL-2 melanoma"}, "[5]": {"system": "MALME-3M melanoma"}, "[6]": {"system": "OVCAR-4 ovarian"}, "[7]": {"system": "NCI-H23 lung"}, "[8]": {"system": "IGROV1 ovarian"}, "[9]": {"system": "ACHN renal"}, "[10]": {"system": "PC-3 prostate"}, "[11]": {"system": "TK-10 renal"}, "[12]": {"system": "SF-268 CNS"}, "[13]": {"system": "KM12 colon"}, "[14]": {"system": "NCI/ADR-RES ovarian"}, "[15]": {"system": "RXF 393 renal"}, "[16]": {"system": "HCT-15 colon"}, "[17]": {"system": "HS 578T breast"}, "[18]": {"system": "HL-60(TB) leukemia"}, "[19]": {"system": "OVCAR-3 ovarian"}, "[20]": {"system": "OVCAR-8 ovarian"}, "[21]": {"system": "MDA-MB-435"}, "[22]": {"system": "HOP-92 NSCLC"}, "[23]": {"system": "OVCAR-5 ovarian"}, "[24]": {"system": "DU-145 prostate"}, "[25]": {"system": "HCT-116 colon"}, "[26]": {"system": "MDA-MB-231 breast"}, "[27]": {"system": "A549 NSCLC"}, "[28]": {"system": "SF-539 CNS"}, "[29]": {"system": "UACC-62 melanoma"}, "[30]": {"system": "SF-295 CNS"}, "[31]": {"system": "U251 CNS"}, "[32]": {"system": "MDA-N"}, "[33]": {"system": "T-47D breast"}, "[34]": {"system": "MCF7 breast"}, "[35]": {"system": "CCRF-CEM leukemia"}, "[36]": {"system": "LOX IMVI melanoma"}, "[37]": {"system": "SNB-19 CNS"}, "[38]": {"system": "SK-MEL-5 melanoma"}, "[39]": {"system": "HOP-62 NSCLC"}, "[40]": {"system": "BT-549 breast"}, "[41]": {"system": "SK-MEL-28 melanoma"}, "[42]": {"system": "NCI-H522 lung"}, "[43]": {"system": "UO-31 renal"}, "[44]": {"system": "UACC-257 melanoma"}, "[45]": {"system": "CAKI-1 renal"}, "[46]": {"system": "COLO 205 colon"}, "[47]": {"system": "SK-OV-3 ovarian"}, "[48]": {"system": "EKVX NSCLC"}, "[49]": {"system": "MOLT-4 leukemia"}, "[50]": {"system": "K-562 leukemia"}, "[51]": {"system": "NCI-H460 lung"}, "[52]": {"system": "M14 melanoma"}, "[53]": {"system": "HT29 colon"}, "[54]": {"system": "SR leukemia"}, "[55]": {"system": "A498 renal"}, "[56]": {"system": "NCI-H226 lung"}, "[57]": {"system": "SNB-75 CNS"}, "[58]": {"system": "786-0 renal"}}, "note": "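Tested at 5 concentrations; 48 h exposure; 96-well plates; endpoints linearly interpolated, else capped at highest concentration. At the TGI there is no net growth.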"}
{"smiles": "S=c1[nH]nc(COc2ccc3c(c2)CCCC3)n1/N=C/c1ccc(Cl)cc1", "values": [{"measurement": "TGI", "setting": "[1]", "value": 37.9, "unit": "µM"}, {"measurement": "TGI", "setting": "[2]", "value": 36.1, "unit": "µM"}, {"measurement": "TGI", "setting": "[3]", "value": 32.7, "unit": "µM"}, {"measurement": "TGI", "setting": "[4]", "value": 36.2, "unit": "µM"}, {"measurement": "TGI", "setting": "[5]", "value": 33.1, "unit": "µM"}, {"measurement": "TGI", "setting": "[6]", "value": 32.8, "unit": "µM"}, {"measurement": "TGI", "setting": "[7]", "value": 35.9, "unit": "µM"}, {"measurement": "TGI", "setting": "[8]", "value": 30.6, "unit": "µM"}, {"measurement": "TGI", "setting": "[9]", "value": 36, "unit": "µM"}, {"measurement": "TGI", "setting": "[10]", "value": 31.2, "unit": "µM"}, {"measurement": "TGI", "setting": "[11]", "value": 38.6, "unit": "µM"}, {"measurement": "TGI", "setting": "[12]", "value": 43, "unit": "µM"}, {"measurement": "TGI", "setting": "[13]", "value": 31.7, "unit": "µM"}, {"measurement": "TGI", "setting": "[14]", "value": 33.7, "unit": "µM"}, {"measurement": "TGI", "setting": "[15]", "value": 28.8, "unit": "µM"}, {"measurement": "TGI", "setting": "[16]", "value": 41, "unit": "µM"}, {"measurement": "TGI", "setting": "[17]", "value": 39.7, "unit": "µM"}, {"measurement": "TGI", "setting": "[18]", "value": 40.7, "unit": "µM"}, {"measurement": "TGI", "setting": "[19]", "value": 30.7, "unit": "µM"}, {"measurement": "TGI", "setting": "[20]", "value": 31.8, "unit": "µM"}, {"measurement": "TGI", "setting": "[21]", "value": 39.4, "unit": "µM"}, {"measurement": "TGI", "setting": "[22]", "value": 32.9, "unit": "µM"}, {"measurement": "TGI", "setting": "[23]", "value": 32, "unit": "µM"}, {"measurement": "TGI", "setting": "[24]", "value": 33, "unit": "µM"}, {"measurement": "TGI", "setting": "[25]", "value": 28.6, "unit": "µM"}, {"measurement": "TGI", "setting": "[26]", "value": 44.9, "unit": "µM"}, {"measurement": "TGI", "setting": "[27]", "value": 35.8, "unit": "µM"}, {"measurement": "TGI", "setting": "[28]", "value": 32.8, "unit": "µM"}, {"measurement": "TGI", "setting": "[29]", "value": 33.7, "unit": "µM"}, {"measurement": "TGI", "setting": "[30]", "value": 33.7, "unit": "µM"}, {"measurement": "TGI", "setting": "[31]", "value": 34.6, "unit": "µM"}, {"measurement": "TGI", "setting": "[32]", "value": 33.5, "unit": "µM"}, {"measurement": "TGI", "setting": "[33]", "value": 30.3, "unit": "µM"}, {"measurement": "TGI", "setting": "[34]", "value": 27.9, "unit": "µM"}, {"measurement": "TGI", "setting": "[35]", "value": 55.8, "unit": "µM"}, {"measurement": "TGI", "setting": "[36]", "value": 37, "unit": "µM"}, {"measurement": "TGI", "setting": "[37]", "value": 40, "unit": "µM"}, {"measurement": "TGI", "setting": "[38]", "value": 29.3, "unit": "µM"}, {"measurement": "TGI", "setting": "[39]", "value": 32.3, "unit": "µM"}, {"measurement": "TGI", "setting": "[40]", "value": 31.3, "unit": "µM"}, {"measurement": "TGI", "setting": "[41]", "value": 33.1, "unit": "µM"}, {"measurement": "TGI", "setting": "[42]", "value": 28.9, "unit": "µM"}, {"measurement": "TGI", "setting": "[43]", "value": 31.4, "unit": "µM"}, {"measurement": "TGI", "setting": "[44]", "value": 48.1, "unit": "µM"}, {"measurement": "TGI", "setting": "[45]", "value": 37.2, "unit": "µM"}, {"measurement": "TGI", "setting": "[46]", "value": 31.2, "unit": "µM"}, {"measurement": "TGI", "setting": "[47]", "value": 32.4, "unit": "µM"}, {"measurement": "TGI", "setting": "[48]", "value": 34.6, "unit": "µM"}, {"measurement": "TGI", "setting": "[49]", "value": 46.9, "unit": "µM"}, {"measurement": "TGI", "setting": "[50]", "value": 50.2, "unit": "µM"}, {"measurement": "TGI", "setting": "[51]", "value": 30.2, "unit": "µM"}, {"measurement": "TGI", "setting": "[52]", "value": 34.5, "unit": "µM"}]}
{"smiles": "COc1ccc2[nH]c(CCNC(=O)c3cc([N+](=O)[O-])cc([N+](=O)[O-])c3)cc2c1", "values": [{"measurement": "TGI", "setting": "[1]", "value": "> 100", "unit": "µM"}, {"measurement": "TGI", "setting": "[2]", "value": "> 100", "unit": "µM"}, {"measurement": "TGI", "setting": "[3]", "value": "> 100", "unit": "µM"}, {"measurement": "TGI", "setting": "[4]", "value": "> 100", "unit": "µM"}, {"measurement": "TGI", "setting": "[5]", "value": "> 100", "unit": "µM"}, {"measurement": "TGI", "setting": "[53]", "value": "> 100", "unit": "µM"}, {"measurement": "TGI", "setting": "[6]", "value": "> 100", "unit": "µM"}, {"measurement": "TGI", "setting": "[7]", "value": "> 100", "unit": "µM"}, {"measurement": "TGI", "setting": "[8]", "value": "> 100", "unit": "µM"}, {"measurement": "TGI", "setting": "[10]", "value": "> 100", "unit": "µM"}, {"measurement": "TGI", "setting": "[11]", "value": "> 100", "unit": "µM"}, {"measurement": "TGI", "setting": "[54]", "value": "> 100", "unit": "µM"}, {"measurement": "TGI", "setting": "[12]", "value": "> 100", "unit": "µM"}, {"measurement": "TGI", "setting": "[13]", "value": "> 100", "unit": "µM"}, {"measurement": "TGI", "setting": "[14]", "value": "> 100", "unit": "µM"}, {"measurement": "TGI", "setting": "[15]", "value": 56.9, "unit": "µM"}, {"measurement": "TGI", "setting": "[16]", "value": "> 100", "unit": "µM"}, {"measurement": "TGI", "setting": "[55]", "value": "> 100", "unit": "µM"}, {"measurement": "TGI", "setting": "[17]", "value": "> 100", "unit": "µM"}, {"measurement": "TGI", "setting": "[18]", "value": "> 100", "unit": "µM"}, {"measurement": "TGI", "setting": "[19]", "value": "> 100", "unit": "µM"}, {"measurement": "TGI", "setting": "[20]", "value": "> 100", "unit": "µM"}, {"measurement": "TGI", "setting": "[21]", "value": "> 100", "unit": "µM"}, {"measurement": "TGI", "setting": "[22]", "value": 93.8, "unit": "µM"}, {"measurement": "TGI", "setting": "[56]", "value": "> 100", "unit": "µM"}, {"measurement": "TGI", "setting": "[24]", "value": "> 100", "unit": "µM"}, {"measurement": "TGI", "setting": "[25]", "value": "> 100", "unit": "µM"}, {"measurement": "TGI", "setting": "[26]", "value": "> 100", "unit": "µM"}, {"measurement": "TGI", "setting": "[27]", "value": "> 100", "unit": "µM"}, {"measurement": "TGI", "setting": "[28]", "value": "> 100", "unit": "µM"}, {"measurement": "TGI", "setting": "[29]", "value": "> 100", "unit": "µM"}, {"measurement": "TGI", "setting": "[31]", "value": 78.1, "unit": "µM"}, {"measurement": "TGI", "setting": "[32]", "value": "> 100", "unit": "µM"}, {"measurement": "TGI", "setting": "[33]", "value": 90.6, "unit": "µM"}, {"measurement": "TGI", "setting": "[34]", "value": "> 100", "unit": "µM"}, {"measurement": "TGI", "setting": "[35]", "value": "> 100", "unit": "µM"}, {"measurement": "TGI", "setting": "[36]", "value": "> 100", "unit": "µM"}, {"measurement": "TGI", "setting": "[37]", "value": "> 100", "unit": "µM"}, {"measurement": "TGI", "setting": "[38]", "value": "> 100", "unit": "µM"}, {"measurement": "TGI", "setting": "[39]", "value": 60.6, "unit": "µM"}, {"measurement": "TGI", "setting": "[40]", "value": "> 100", "unit": "µM"}, {"measurement": "TGI", "setting": "[41]", "value": "> 100", "unit": "µM"}, {"measurement": "TGI", "setting": "[43]", "value": "> 100", "unit": "µM"}, {"measurement": "TGI", "setting": "[44]", "value": "> 100", "unit": "µM"}, {"measurement": "TGI", "setting": "[45]", "value": "> 100", "unit": "µM"}, {"measurement": "TGI", "setting": "[46]", "value": "> 100", "unit": "µM"}, {"measurement": "TGI", "setting": "[47]", "value": "> 100", "unit": "µM"}, {"measurement": "TGI", "setting": "[49]", "value": "> 100", "unit": "µM"}, {"measurement": "TGI", "setting": "[50]", "value": "> 100", "unit": "µM"}, {"measurement": "TGI", "setting": "[57]", "value": 46.2, "unit": "µM"}, {"measurement": "TGI", "setting": "[58]", "value": "> 100", "unit": "µM"}, {"measurement": "TGI", "setting": "[51]", "value": "> 100", "unit": "µM"}, {"measurement": "TGI", "setting": "[52]", "value": "> 100", "unit": "µM"}]}
